How the values were obtained:
ISC-enriched organoids [1] = experiment: Primary screen, 384-well 2.5-D organoid differentiation (ENR+CD, 6 days, Target Selective Inhibitor Library, vs whole-plate median): ATP (CellTiter-Glo 3D, CTG); conditions: primary screen; for Dose.FC.CTG: FC vs plate median; for Z.CTG: standard z score; for SSMD.CTG: strictly standardized mean difference
ISC-enriched organoids [2] = experiment: Primary screen, 384-well 2.5-D organoid differentiation (ENR+CD, 6 days): basal lysozyme secretion (LYZ.NS); format: cell-based, murine; conditions: primary screen; for Dose.FC.LYZ.NS: FC vs plate median; for Z.LYZ.NS: standard z score; for SSMD.LYZ.NS: strictly standardized mean difference
Text: (§1) High-throughput screening.

ISC-enriched organoids [3] = experiment: Primary screen, 384-well 2.5-D organoid differentiation (ENR+CD, 6 days): carbachol-induced lysozyme secretion (LYZ.S); format: cell-based, murine; conditions: primary screen; for Dose.FC.LYZ.S: FC vs plate median; for Z.LYZ.S: standard z score; for SSMD.LYZ.S: strictly standardized mean difference
Text: as §1

[4] = 1st of the 4 dose lines of the treatment (dose not given)
[5] = 2nd of the 4 dose lines of the treatment (dose not given)
[6] = 3rd of the 4 dose lines of the treatment (dose not given)
[7] = 4th of the 4 dose lines of the treatment (dose not given)

SMILES	Z.CTG (ISC-enriched organoids [1]; Dose 0.08 uM)	Z.CTG (ISC-enriched organoids [1]; Dose 0.40 uM)	Z.CTG (ISC-enriched organoids [1]; Dose 2.00 uM)	Z.CTG (ISC-enriched organoids [1]; Dose 10.00 uM)	SSMD.CTG (ISC-enriched organoids [1]; [4])	SSMD.CTG (ISC-enriched organoids [1]; [5])	SSMD.CTG (ISC-enriched organoids [1]; [6])	SSMD.CTG (ISC-enriched organoids [1]; [7])	SSMD.LYZ.NS (ISC-enriched organoids [2]; [4])	SSMD.LYZ.NS (ISC-enriched organoids [2]; [5])	SSMD.LYZ.NS (ISC-enriched organoids [2]; [6])	SSMD.LYZ.NS (ISC-enriched organoids [2]; [7])	Z.LYZ.S (ISC-enriched organoids [3]; [4])	Z.LYZ.S (ISC-enriched organoids [3]; [5])	Z.LYZ.S (ISC-enriched organoids [3]; [6])	Z.LYZ.S (ISC-enriched organoids [3]; [7])	SSMD.LYZ.S (ISC-enriched organoids [3]; [4])	SSMD.LYZ.S (ISC-enriched organoids [3]; [5])	SSMD.LYZ.S (ISC-enriched organoids [3]; [6])	SSMD.LYZ.S (ISC-enriched organoids [3]; [7])	other results
COc1cc(-c2ncn(/C=C\C(=O)OC(C)C)n2)cc(C(F)(F)F)c1 [KPT-185]	0.277	0.248	−2.377	−2.041	0.296	0.270	−1.033	−0.723	−0.049	0.872	−1.718	−0.298	−0.096	1.420	−2.085	−0.989	−0.092	0.978	−1.455	−0.431	Dose.FC.CTG (ISC-enriched organoids [1]; Dose 0.08 uM): 0.116 log 2 fold change; Dose.FC.CTG (ISC-enriched organoids [1]; Dose 0.40 uM): 0.104 log 2 fold change; Dose.FC.CTG (ISC-enriched organoids [1]; Dose 2.00 uM): −0.995 log 2 fold change; Dose.FC.CTG (ISC-enriched organoids [1]; Dose 10.00 uM): −0.855 log 2 fold change; Dose.FC.LYZ.NS (ISC-enriched organoids [2]; Dose 0.08 uM): −0.006 log 2 fold change; Z.LYZ.NS (ISC-enriched organoids [2]; Dose 0.08 uM): −0.049; Dose.FC.LYZ.NS (ISC-enriched organoids [2]; Dose 0.40 uM): 0.097 log 2 fold change; Z.LYZ.NS (ISC-enriched organoids [2]; Dose 0.40 uM): 0.846; Dose.FC.LYZ.NS (ISC-enriched organoids [2]; Dose 2.00 uM): −0.209 log 2 fold change; Z.LYZ.NS (ISC-enriched organoids [2]; Dose 2.00 uM): −1.820; Dose.FC.LYZ.NS (ISC-enriched organoids [2]; Dose 10.00 uM): −0.085 log 2 fold change; Z.LYZ.NS (ISC-enriched organoids [2]; Dose 10.00 uM): −0.744; Dose.FC.LYZ.S (ISC-enriched organoids [3]; Dose 0.08 uM): −0.015 log 2 fold change; Dose.FC.LYZ.S (ISC-enriched organoids [3]; Dose 0.40 uM): 0.220 log 2 fold change; Dose.FC.LYZ.S (ISC-enriched organoids [3]; Dose 2.00 uM): −0.322 log 2 fold change; Dose.FC.LYZ.S (ISC-enriched organoids [3]; Dose 10.00 uM): −0.153 log 2 fold change
O=C(/C=C\n1cnc(-c2cc(C(F)(F)F)cc(C(F)(F)F)c2)n1)N1CC(F)(F)C1 [KPT-276]	0.399	−0.104	−0.986	−1.680	0.494	−0.146	−0.772	−2.520	0.486	0.742	−1.426	−1.384	0.860	0.958	−2.111	−2.335	0.806	0.771	−1.399	−1.417	Dose.FC.CTG (ISC-enriched organoids [1]; Dose 0.08 uM): 0.167 log 2 fold change; Dose.FC.CTG (ISC-enriched organoids [1]; Dose 0.40 uM): −0.044 log 2 fold change; Dose.FC.CTG (ISC-enriched organoids [1]; Dose 2.00 uM): −0.413 log 2 fold change; Dose.FC.CTG (ISC-enriched organoids [1]; Dose 10.00 uM): −0.703 log 2 fold change; Dose.FC.LYZ.NS (ISC-enriched organoids [2]; Dose 0.08 uM): 0.056 log 2 fold change; Z.LYZ.NS (ISC-enriched organoids [2]; Dose 0.08 uM): 0.492; Dose.FC.LYZ.NS (ISC-enriched organoids [2]; Dose 0.40 uM): 0.086 log 2 fold change; Z.LYZ.NS (ISC-enriched organoids [2]; Dose 0.40 uM): 0.746; Dose.FC.LYZ.NS (ISC-enriched organoids [2]; Dose 2.00 uM): −0.224 log 2 fold change; Z.LYZ.NS (ISC-enriched organoids [2]; Dose 2.00 uM): −1.947; Dose.FC.LYZ.NS (ISC-enriched organoids [2]; Dose 10.00 uM): −0.256 log 2 fold change; Z.LYZ.NS (ISC-enriched organoids [2]; Dose 10.00 uM): −2.230; Dose.FC.LYZ.S (ISC-enriched organoids [3]; Dose 0.08 uM): 0.133 log 2 fold change; Dose.FC.LYZ.S (ISC-enriched organoids [3]; Dose 0.40 uM): 0.148 log 2 fold change; Dose.FC.LYZ.S (ISC-enriched organoids [3]; Dose 2.00 uM): −0.327 log 2 fold change; Dose.FC.LYZ.S (ISC-enriched organoids [3]; Dose 10.00 uM): −0.361 log 2 fold change
C[C@@H]1CN(CC(=O)Nc2ccc3c(c2)Cc2cccc(-c4cc(=O)cc(N5CCOCC5)o4)c2S3)C[C@H](C)O1 [KU-60019]	0.273	0.094	0.290	−1.246	0.371	0.118	0.175	−0.916	0.305	−0.014	−0.103	−0.570	1.490	0.474	−0.317	−1.436	0.938	0.312	−0.261	−0.923	–
COC(=O)CCSCc1ccc(-c2onc(C)c2NC(=O)OC(C)c2ccccc2Cl)cc1 (centres unmarked) [Ki16198]	−0.026	−0.258	−0.078	0.052	−0.028	−0.359	−0.118	0.073	0.052	−0.083	0.211	−0.914	0.176	0.204	−0.095	−0.239	0.136	0.231	−0.105	−0.262	Dose.FC.CTG (ISC-enriched organoids [1]; Dose 0.08 uM): −0.011 log 2 fold change; Dose.FC.CTG (ISC-enriched organoids [1]; Dose 0.40 uM): −0.108 log 2 fold change; Dose.FC.CTG (ISC-enriched organoids [1]; Dose 2.00 uM): −0.033 log 2 fold change; Dose.FC.CTG (ISC-enriched organoids [1]; Dose 10.00 uM): 0.022 log 2 fold change; Dose.FC.LYZ.NS (ISC-enriched organoids [2]; Dose 0.08 uM): 0.005 log 2 fold change; Z.LYZ.NS (ISC-enriched organoids [2]; Dose 0.08 uM): 0.044; Dose.FC.LYZ.NS (ISC-enriched organoids [2]; Dose 0.40 uM): −0.009 log 2 fold change; Z.LYZ.NS (ISC-enriched organoids [2]; Dose 0.40 uM): −0.076; Dose.FC.LYZ.NS (ISC-enriched organoids [2]; Dose 2.00 uM): 0.060 log 2 fold change; Z.LYZ.NS (ISC-enriched organoids [2]; Dose 2.00 uM): 0.519; Dose.FC.LYZ.NS (ISC-enriched organoids [2]; Dose 10.00 uM): −0.103 log 2 fold change; Z.LYZ.NS (ISC-enriched organoids [2]; Dose 10.00 uM): −0.899; Dose.FC.LYZ.S (ISC-enriched organoids [3]; Dose 0.08 uM): 0.027 log 2 fold change; Dose.FC.LYZ.S (ISC-enriched organoids [3]; Dose 0.40 uM): 0.031 log 2 fold change; Dose.FC.LYZ.S (ISC-enriched organoids [3]; Dose 2.00 uM): −0.015 log 2 fold change; Dose.FC.LYZ.S (ISC-enriched organoids [3]; Dose 10.00 uM): −0.037 log 2 fold change
